Consider 2 compounds from patent US11970497B2, “Tricyclic AKR1C3 dependent KARS inhibitors” (Novartis AG, priority 2019, dated 2024).

Broadly, the AC50 is the concentration giving half of the maximal activity seen.

Common to all, as to assay: Expanded lung cancer cell line proliferation assay
Common to all, as to assay type: cell-based

One assay has as its system NCI-H1435. The note with it: NCI-H1435, 72 h, average of PrestoBlue and Cell Titer Glo; AKR1C3 171.1 TPM; read-out: Absolute Qualified AC50. The method, boiled down:
(§1)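 72 h growth assay, RPMI-1640/10% FBS, 37 °C/5% CO2; 8-pt dose, 1 μM top; PrestoBlue + CTG multiplex; AC50 = mean of both read-outs.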
In general terms: Cellular ATP, detected with luciferase, serves as a proxy for viable cell number.

Another assay deals with LXF-289. The note with it: Homo sapiens; LXF-289, 72 h, average of PrestoBlue and Cell Titer Glo; AKR1C3 358.4 TPM; read-out: Absolute Qualified AC50. The method, boiled down:
as §1

The next assay deals with NCI-H1437. Conditions: Homo sapiens; NCI-H1437, 72 h, average of PrestoBlue and Cell Titer Glo; AKR1C3 2720.8 TPM; read-out: Absolute Qualified AC50. The method, boiled down: as §1
The test system of the next assay is SW1271. Conditions: SW1271, 72 h, average of PrestoBlue and Cell Titer Glo; AKR1C3 2.4 TPM; read-out: Absolute Qualified AC50. The essentials:
as §1

Another assay concerns NCI-H1944. The note with it: Homo sapiens; NCI-H1944, 72 h, average of PrestoBlue and Cell Titer Glo; AKR1C3 3164.3 TPM; read-out: Absolute Qualified AC50. The method, boiled down: as §1
The next assay relates to NCI-H596. Conditions: Homo sapiens; NCI-H596, 72 h, average of PrestoBlue and Cell Titer Glo; AKR1C3 265.6 TPM; read-out: Absolute Qualified AC50. The essentials:
as §1

Another assay relates to NCI-H1373. The note with it: Homo sapiens; NCI-H1373, 72 h, average of PrestoBlue and Cell Titer Glo; AKR1C3 8 TPM; read-out: Absolute Qualified AC50. The essentials:
as §1

Another assay deals with NCI-H1573. The note with it: Homo sapiens; NCI-H1573, 72 h, average of PrestoBlue and Cell Titer Glo; AKR1C3 306.2 TPM; read-out: Absolute Qualified AC50. The essentials: as §1
A further assay has as its system Calu-6. The note with it: Homo sapiens; Calu-6, 72 h, average of PrestoBlue and Cell Titer Glo; AKR1C3 32.5 TPM; read-out: Absolute Qualified AC50. The essentials: as §1
In a further assay the test system is ChaGo-K-1. Conditions: Homo sapiens; ChaGo-K-1, 72 h, average of PrestoBlue and Cell Titer Glo; AKR1C3 1.5 TPM; read-out: Absolute Qualified AC50. The method, boiled down: as §1
Another assay concerns NCI-H520. The note with it: Homo sapiens; NCI-H520, 72 h, average of PrestoBlue and Cell Titer Glo; AKR1C3 608.9 TPM; read-out: Absolute Qualified AC50. The method, boiled down:
as §1

A further assay deals with NCI-H1703. The note with it: Homo sapiens; NCI-H1703, 72 h, average of PrestoBlue and Cell Titer Glo; AKR1C3 3.2 TPM; read-out: Absolute Qualified AC50. The essentials: as §1
The next assay deals with NCI-H838. Conditions: Homo sapiens; NCI-H838, 72 h, average of PrestoBlue and Cell Titer Glo; AKR1C3 233 TPM; read-out: Absolute Qualified AC50. The method, boiled down: as §1
For another assay, the system named is HCC-44. Conditions: Homo sapiens, HCC44; HCC-44, 72 h, average of PrestoBlue and Cell Titer Glo; AKR1C3 134.3 TPM; read-out: Absolute Qualified AC50. The essentials:
as §1

Consider `O=C1CC2(CCN(C(=O)NCc3ccc(F)cc3)CC2)Nc2ccc(F)cc21` [Example 40], for which the AC50 in the assay on NCI-H1435 was 273 nM; in the assay with LXF-289, 835 nM; in the assay on NCI-H1437 it was 68 nM; in the assay with SW1271 it was over 1000 nM; with NCI-H1944, 52 nM; with NCI-H596, 334 nM. In addition, the AC50 in the assay on NCI-H1373 was over 1000 nM; with NCI-H1573, 293 nM; in the assay with Calu-6, over 1000 nM; with ChaGo-K-1, over 1000 nM; in the assay with NCI-H520, over 1000 nM; with NCI-H1703, over 1000 nM. Further, the AC50 in the assay on NCI-H838 stood at 641 nM; with HCC-44 it was 440 nM.
`CN1c2ccc(F)cc2C(=O)CC12CCN(C(=O)NCc1ccc(F)c(NCCO)c1)CC2` [Example 36, 6′-fluoro-N-(4-fluoro-3-((2-hydroxyethyl)amino)benzyl)-1′-methyl-4′-oxo-3′,4′-dihydro-1′H-spiro[piperidine-4,2′-quinoline]-1-carboxamide]: the AC50 with NCI-H1435 was 478 nM; with LXF-289 it was 781 nM; with NCI-H1437, 257 nM; in the assay on SW1271, over 1000 nM; with NCI-H1944 it was 275 nM; in the assay on NCI-H596, 754 nM. The AC50 in the assay with NCI-H1373 was over 1000 nM; in the assay on NCI-H1573, 946 nM; in the assay with Calu-6, over 1000 nM; in the assay on ChaGo-K-1, over 1000 nM; with NCI-H520, over 1000 nM; in the assay on NCI-H1703, over 1000 nM. Also, the AC50 with NCI-H838 was over 1000 nM; in the assay with HCC-44, 705 nM.
